Assay results published in patent publication US20250268860A1, “COMPOSITION FOR USE IN THE CUTANEOUS SYNTHESIS OF HYALURONIC ACID, IN AN IMMUNO-CUTANEOUS RESPONSE AND TO IMPROVE SKIN” (JR, priority 2021, published 2025).
Like-named read-outs stand apart in the source and are kept apart here.

What was measured:
[1] = tested on: Fibroblasts from healthy skin (FS)
Method: Fibroblasts from healthy skin (FS) are cultured from biopsies performed on a patient, on a skin explant derived from surgery and considered as surgical waste. The conventional explantation technique is used for fibroblast extraction. The explants are cultured in Dulbecco's modified Eagle's medium supplemented with 10% fetal calf serum (FCS), 40 mg/l gentamicin and 2 mg/l fungizone (DMEMc) at 37° C., in a humid atmosphere and in the presence of 5% CO2.
The study of cell viability in the presence of the active principles to be tested is performed by means of an MTT assay. MTT is a tetrazolium salt whose ring is transformed by mitochondrial dehydrogenases. The yellow substrate is transformed into a dark blue product by living cells, but not by dead cells or the culture medium. This colorimetric test allows the color intensity to be linked to the number of living cells. The absorbance at 550 nm is directly proportional to the number of living fibroblasts. Cytotoxicity occurs when the cell viability is less than 80% relative to the control.
The active agents in powder form were taken up in 100% DMSO so as to obtain the stock solutions. […] After 24 hours of culturing, the active principles to be tested were added. Twelve concentrations of each active principle were tested (n=10/concentration). The active agents were dissolved directly in the culture medium from the stock solutions. After 24 hours of culturing in the presence of the active agents, an MTT assay was performed.
Following the cytotoxicity results of the two active agents alone, a second cytotoxicity test was performed with the mixture. For each mixture, three concentrations were tested (n=10/concentration): • C1: highest concentration • C2: ½ dilution • C3: […]
The values are expressed as a percentage relative to the control, plus or minus the standard error of the distribution of the means (SEM). A one-factor analysis of variance is performed, followed if necessary by a Fisher test. Significance is retained only when p<0.05.

[2] = tested on: hyaluronic acid synthesis; test: Hyaluronic acid assay (ELISA) in fibroblast culture supernatant; type: cell-based, human
Method: At confluence, the fibroblasts were trypsinized and seeded in 6-well plates at 0.08×10^6 cells per well in DMEMc 10% FCS. After 24 hours of culturing, the medium was replaced with DMEMc 1% FCS.
After 24 hours of culturing, 2 ml of medium with or without active agent were added. The active agents were diluted to the concentrations chosen following cytotoxicity tests in DMEMc 1% FCS culture medium.
Aliquots were stored at −80° C. until assayed. The cell monolayers were washed with PBS and 500 μl of 0.1N NaOH were added. The cell lyzate was stored at −20° C. until protein assay.
The amount of hyaluronic acid in the various samples was determined by ELISA (Enzyme-Linked Immunosorbent Assay) using a TECO@kit. This kit is a sensitive sandwich assay which uses microplates coated with hyaluronic acid binding protein (HABP) and HRP-conjugated HABP binding protein for detection. The HRP-conjugated HABP binding protein binds to the hyaluronic acid contained in the sample, and then reacts with the substrate. The color intensity is proportional to the HA content of the sample.
100 μl of standard or 100 μl of sample diluted to 1:50 were added to each well. The plate was incubated for 2 hours at room temperature, with agitation. After washing the plate, 100 μl of HRBP-HRP conjugate were added to each well. The plate was incubated for 30 minutes at room temperature, with agitation. After washing the wells, 100 μl of TMB substrate were added. The plate was incubated for 30 minutes at room temperature, in the dark and with agitation. The reaction was stopped by adding 100 μl of stop solution per well. Optical density readings were immediately taken at 450 nm.
The calibration curve was plotted, representing OD as a function of hyaluronic acid concentration. A regression curve was then plotted and the amounts of hyaluronic acid contained in the samples were determined by means of the equation of this regression curve. The hyaluronic acid concentrations are expressed in ng/mg of protein.
A calibration range (0-2 mg/ml) was established using a solution of bovine serum albumin. 20 μl of each point of the calibration or sample range were placed in duplicate in the wells of a 96-well plate. 200 μl of Pierce reagent were added and the plate was incubated for 30 minutes at 37° C. The absorbance was read immediately at 550 nm (MultiSkan FC spectrophotometer, Thermo).
Significance is retained only when p<0.05.

beta-defensin-2 (hBD-2) = test: hBD-2 release from keratinocytes, ELISA; type: cell-based, human; details: for hBD-2 % control / hBD-2 Mean / hBD-2: 72 hours; for hBD-2: single values
Method: More specifically, the effect of these compounds was evaluated on the release of beta-defensin-2 (hBD -2) by Enzyme-Linked Immunosorbent Assay (ELISA). Prior to this, a preliminary cytotoxicity test was performed using a standard WST-8 reduction assay to determine the concentrations to be tested.
(§1) • Cell type: Normal human epidermal keratinocytes (NHEK), used at the third passage • Culture conditions: 37° C., 5% CO2 • Culture medium: Keratinocyte-SFM optimized for the test, supplemented with Epidermal Growth Factor and pituitary extract
The keratinocytes were seeded in 96-well plates and cultured in culture medium for 24 hours. The medium was then replaced with culture medium containing or not (control) the compounds to be tested or the reference cytokine mixture (IL-17+IL-22+TNF-α at 5 ng/ml each). The cells were then incubated for 72 hours. All the experimental conditions were performed in n=3.
The inter-group comparisons were made using the unpaired bilateral Student's t-test. The statistical analyses can be interpreted if n>5; however for n<5, the calculated data are provided purely as a guide.

[3] = tested on: Normal human epidermal keratinocytes (NHEK); test: Preliminary test of cytotoxicity, WST-8 reduction and morphological observations; type: cell-based; details: 72 h
Method: as §1
• Cell type: NHEK in culture medium • Incubation time: 72 hours • Evaluation parameters: WST-8 reduction and morphological microscopic observations.
At the end of the treatment, the cells were incubated in the presence of WST-8 (a highly water-soluble tetrazolium salt), reduced to a water-soluble, orange-colored product (formazan) by succinate dehydrogenase (a mitochondrial enzyme). This transformation is proportional to the number of living cells and their metabolic activity. The optical density (OD) was measured with a spectrophotometer at 450 nm (VERSAmax, Molecular Devices).
Percentage viability: viability (%)=(OD compound/OD control)×100

Q: With `O=C(/C=C/c1ccc(O)c(O)c1)O[C@@H]1C[C@](O)(C(=O)O)C[C@@H](O)[C@H]1O` [GPCB07, chlorogenic acid] as the molecule, how does the “maximum non-cytotoxic concentration retained” value ([1]; female, human, 24 h) read?
A: 100 µM

Q: And the “Viability (%/Ctrl)” value ([1]; female, human, 24 h, 0.5 μM)?
A: 95.14 %/Ctrl

Q: What about the “Viability (%/Ctrl)” value ([1]; female, human, 24 h, 1 μM) of the same molecule?
A: 94.89 %/Ctrl

Q: What about the “Viability (%/Ctrl)” value ([1]; female, human, 24 h, 5 μM) of the same molecule?
A: 101.75 %/Ctrl

Q: And the “Viability (%/Ctrl)” value ([1]; female, human, 24 h, 10 μM)?
A: 89.63 %/Ctrl

Q: What about the “Viability (%/Ctrl)” value ([1]; female, human, 24 h, 25 μM) of the same molecule?
A: 100.28 %/Ctrl

Q: What about the “Viability (%/Ctrl)” value ([1]; female, human, 24 h, 50 μM) of the same molecule?
A: 99.64 %/Ctrl

Q: And the “Viability (%/Ctrl)” value ([1]; female, human, 24 h, 75 μM)?
A: 103.28 %/Ctrl

Q: And the “Viability (%/Ctrl)” value ([1]; female, human, 24 h, 100 μM)?
A: 100.41 %/Ctrl

Q: What about the “improvement of hyaluronic acid (HA) content of skin cells reported in Ref. 18” value ([2]; 100 μM, FIG. 4) of the same molecule?
A: could not be reproduced

Q: And the “decrease of hyaluronic acid synthesis” value ([2]; tested alone, 100 μM, 48 hours, relative to control)?
A: about 20%

Q: What about the “effect on beta-defensin-2 release from human epidermal keratinocytes” value (beta-defensin-2 (hBD-2)) of the same molecule?
A: no effect

Q: What about the hBD-2 % control (beta-defensin-2 (hBD-2); 0.0033%) of the same molecule?
A: <73 % control

Q: What about the “hBD-2 Mean” value (beta-defensin-2 (hBD-2); 0.0033%) of the same molecule?
A: <8 pg/mL

Q: What about the “hBD-2” value (beta-defensin-2 (hBD-2); 0.0033%) of the same molecule?
A: <8 pg/mL

Q: And the hBD-2 % control (beta-defensin-2 (hBD-2); 0.01%)?
A: <73 % control

Q: And the “hBD-2 Mean” value (beta-defensin-2 (hBD-2); 0.01%)?
A: <8 pg/mL

Q: What about the “hBD-2” value (beta-defensin-2 (hBD-2); 0.01%) of the same molecule?
A: <8 pg/mL

Q: What about the hBD-2 % control (beta-defensin-2 (hBD-2); 0.03%) of the same molecule?
A: <73 % control

Q: What about the “hBD-2 Mean” value (beta-defensin-2 (hBD-2); 0.03%) of the same molecule?
A: <8 pg/mL

Q: What about the “hBD-2” value (beta-defensin-2 (hBD-2); 0.03%) of the same molecule?
A: <8 pg/mL

Q: For `O=C(O)[C@H]1O[C@@H](Oc2cc3oc(-c4ccccc4)cc(=O)c3c(O)c2O)[C@H](O)[C@@H](O)[C@@H]1O` [GPCB09, baicalin], which “Viability (%/Ctrl)” value ([1]; 0.5 μM, 24 hours) is on record?
A: 99.82 %/Ctrl

Q: What about the “Viability (%/Ctrl)” value ([1]; 1.0 μM, 24 hours) of the same molecule?
A: 98.27 %/Ctrl

Q: And the “Viability (%/Ctrl)” value ([1]; 5.0 μM, 24 hours)?
A: 101.92 %/Ctrl

Q: What about the “Viability (%/Ctrl)” value ([1]; 10.0 μM, 24 hours) of the same molecule?
A: 100.76 %/Ctrl

Q: And the “Viability (%/Ctrl)” value ([1]; 50.0 μM, 24 hours)?
A: 86.65 %/Ctrl

Q: What about the “Viability (%/Ctrl)” value ([1]; 100.00 μM, 24 hours) of the same molecule?
A: 21.80 %/Ctrl

Q: And the “decrease in cell viability relative to the control” value ([1]; 75 and 100 μM)?
A: very significant

Q: And the “concentration causing a significant reduction in cell viability relative to the control” value ([1]; 24 hours, MTT)?
A: ≥ 50 µM

Q: What about the “maximum non-cytotoxic concentration retained” value ([1]; active agent alone) of the same molecule?
A: 25 µM

Q: And the “effect on HA content relative to a control test” value ([2]; 25 μM, FIG. 4)?
A: improve HA content

Q: And the “increase of hyaluronic acid synthesis” value ([2]; tested alone, 25 μM, 48 hours, relative to control)?
A: about 30%

Q: And the “Viability Mean (%)” value ([3]; 0.0004 mg/mL)?
A: 99%

Q: What about the “Viability Mean (%)” value ([3]; 0.0012 mg/mL) of the same molecule?
A: 96%

Q: What about the “Viability Mean (%)” value ([3]; 0.0037 mg/mL) of the same molecule?
A: 87%

Q: And the “Viability Mean (%)” value ([3]; 0.011 mg/mL)?
A: 66%

Q: And the “Viability Mean (%)” value ([3]; 0.033 mg/mL)?
A: 35%

Q: What about the “Viability Mean (%)” value ([3]; 0.098 mg/mL) of the same molecule?
A: 21%

Q: And the “Viability Mean (%)” value ([3]; 0.287 mg/mL)?
A: 19%

Q: And the “Viability Mean (%)” value ([3]; 0.38 mg/mL)?
A: 1%

Q: And the “effect on beta-defensin-2 release from human epidermal keratinocytes” value (beta-defensin-2 (hBD-2))?
A: no effect

Q: And the hBD-2 % control (beta-defensin-2 (hBD-2); 0.0001%)?
A: <73 % control

Q: And the “hBD-2 Mean” value (beta-defensin-2 (hBD-2); 0.0001%)?
A: <8 pg/mL

Q: And the “hBD-2” value (beta-defensin-2 (hBD-2); 0.0001%)?
A: <8 pg/mL

Q: And the hBD-2 % control (beta-defensin-2 (hBD-2); 0.0003%)?
A: <73 % control

Q: And the “hBD-2 Mean” value (beta-defensin-2 (hBD-2); 0.0003%)?
A: <8 pg/mL

Q: And the “hBD-2” value (beta-defensin-2 (hBD-2); 0.0003%)?
A: <8 pg/mL

Q: What about the hBD-2 % control (beta-defensin-2 (hBD-2); 0.001%) of the same molecule?
A: <73 % control

Q: And the “hBD-2 Mean” value (beta-defensin-2 (hBD-2); 0.001%)?
A: <8 pg/mL

Q: What about the “hBD-2” value (beta-defensin-2 (hBD-2); 0.001%) of the same molecule?
A: <8 pg/mL
